Assays:
[1] = system: MHC-I, PSMB8, PSMB9, and PSMB10; assay: Immunoblot of IFNG-induced MHC-I and immunoproteasome protein in MB135 myoblasts treated with inhibitors; type: cell-based, human; settings: MB135 myoblasts without DUX4 induction, agent then IFNG 16 h; 4EGI-1 at 50 uM
Procedure: To test if mTOR inactivation was sufficient to block MHC-I and immunoproteasome protein levels in the absence of DUX4, parental MB135 myoblasts were treated with mTOR inhibitors everolimus or Torin2. Everolimus is a second-generation rapamycin analog with binding specificity for mTORC1. […] To further validate the role of 4EBP1 in blocking MHC-I and immunoproteasome protein expression, MB135 cells were treated with 4EGI-1, a small molecule that pharmacologically mimics 4EBP function and inhibits eIF4E.
Protein samples were harvested in RIPA buffer [150 mM NaCl, 1% NP-40, 0.5% Na-deocycholate, 1% SDS, 25 mM Tris-HCl pH7.4] supplemented with protease and phosphatase inhibitor tablets (Pierce), followed by sonication in Diagenode Bioruptor. Lysate was cleared by centrifugation at 16000×g and quantified using a Pierce BCA assay (Thermo Fisher Scientific). Samples were run on NuPAGE precast polyacrylamide gels (Invitrogen) and transferred to PVDF membrane. Membranes were blocked in PBS containing 0.1% Tween-20 and 5% non-fat dry milk before overnight incubation at 4° C. with primary antibodies (see resource table for a list of antibodies used in this study). Membranes were incubated with horseradish peroxidase-conjugated secondary antibodies for 1 hour at room temperature and SuperSignal chemiluminescent substrate (Thermo Scientific) was used for detection on film with a Mini-medical 90 processor. Membranes were stripped with Restore Western Blot Stripping Buffer (Pierce).

[2] = system: proteins that co-immunoprecipitated with DUX4-CTD constructs expressed in MB135 myoblasts; assay: LC-MS of proteins co-immunoprecipitated with DUX4-CTD (Table 1) and western validation; type: binding, human; set-up: key to 4. mL1dL2 + Dox + IFNG / 4. + IFNG mix / 4. longCTD + Dox + IFNG / 3. + IFNg + Dox longCTD / 3. + Dox longCTD / 3. + IFNG longCTD: peptide-spectrum matches (PSMs) per protein; settings: for 4. longCTD + Dox + IFNG: LC-MS counts of the listed protein co-immunoprecipitated with DUX4-CTD bait longCTD; for 3. + IFNg + Dox longCTD: experiment 3, IFNg + Dox; for SUM of PSMS: sum over all samples; for 3. + Dox longCTD: experiment 3, Dox only; for 4. + IFNG mix: LC-MS value per protein co-immunoprecipitated from MB135 myoblasts, + IFNG mix sample (no Dox)
From the text: As an unbiased method to identify proteins that interact with the C-terminal region of DUX4, liquid chromatography mass spectroscopy (LC-MS) was used to identify proteins that co-immunoprecipitated with DUX4-CTD constructs expressed in MB135 myoblasts. In the first experiment, MB135iDUX4-CTD cells were used, either untreated, treated with doxycycline alone, or with both doxycycline and IFNG. In the second experiment, MB135iDUX4-CTD and MB135iDUX4mL1dL2 cells were used, both treated with doxycycline and IFNG, compared to these two cell lines untreated and combined as a control. Proteins with a minimum of 2 peptide spectrum matches (PSMs) in at least one sample that were identified in both experiments were assigned to one of ten categories (see Methods) to separate candidate interactors from other categories that might be co-purified because of obligate interactions (e.g., proteasome or ribosome) or might be less likely to be physiologically relevant (e.g., cytoskeletal proteins). Candidate interactors were then ranked based on the total PSMs for that protein across all samples.
Centrifugation at 2500 rcf at 4° C. for 5 min pelleted the nuclei, supernatant was discarded, and nuclei resuspended in 1 mL IP buffer pH 7.4 (25 mM Tris-HCl pH 7.5, 175 mM NaCl, 1 mM EDTA, 0.2% NP-40, 5% glycerol) and incubated for 1 hour at 4° C. with rotation then spun at 21000 rcf for 10 minutes at 4° C. to pellet insoluble debris. Protein concentration was determined using the Pierce BCA Protein Assay Kit (ThermoFisher, 23225). An equivalent amount of protein per sample was pre-cleared with Dynabeads Protein G (Invitrogen) bound to mouse IgG (Abcam #131368) for 1 hour at 4° C. with rotation. FLAG-tagged constructs were then immunoprecipitated with Dynabeads Protein G beads coupled to mouse anti-FLAG M2 mAb (Sigma F3165) for 3 hours at 4° C. with rotation. Beads were washed 3× with 1 mL IP buffer and eluted by adding 2× NuPage LDS Sample Buffer (Thermo Fisher, diluted from 4× with PBS) to the beads and heating for 10 minutes at 70° C.
For LC-MS, anti-FLAG immunoprecipitation was performed with beads cross-linked to the anti-FLAG antibody and the proteins competitively eluted with FLAG peptide. Eluted protein samples were electrophoresed into a NuPage 4-12% Bis-Tris gel, excised, and processed by the Fred Hutchinson Cancer Research Center Proteomics Core. Samples were reduced, alkylated, digested with trypsin, desalted, and run on the Orbitrap Eclipse Tribid Mass Spectrometer (Thermo Fisher). Proteomics data were analyzed using Proteome Discoverer 2.4 against a Uniprot human database that included common contaminants using Sequest HT and Percolator for scoring. […] Proteins that were identified in at least one sample from both independent experiments with at least 2 PSMs in one sample were assigned to one of ten categories: 1, candidates; 2, cytoskeletal associated; 3, cytoskeletal; 4, ribosome/translation associated; 5, proteasome associated; 6, membrane or extracellular; ER, golgi, or vesicle associated; 8, lipid metabolism; 9, chaperones; 10, nuclear import or nuclear membrane associated. The proteins in category 1 were further investigated for interactions with DUX4.

ZSCAN4 = assay: Activation of DUX4 target gene ZSCAN4, RT-qPCR; type: cell-based, human; settings: MB135 cells ± doxycycline
Procedure: (§1) All myoblast experiments were conducted in immortalized MB135 or MB200 myoblast cell lines (isolated from a control or FSHD2 subject, respectively cultured in Ham's F-10 Nutrient Mix (Gibco) supplemented with 15% fetal bovine serum (Hyclone), 100 U/100 μg/ml penicillin/streptomycin (Gibco), 1 μM dexamethasone (Sigma), and 10 ng/ml recombinant human basic fibroblast growth factor (PeproTech). To differentiate the myoblasts to myotubes, media was changed to DMEM supplemented with 10 μg/ml insulin (Sigma) and 10 μg/ml transferrin (Sigma). Cell lines containing doxycycline-inducible transgenes were additionally cultured with 2 μg/mL puromycin (Sigma). Transgenes were induced with 1 μg/mL of doxycycline (Sigma) for 4 hours prior to other treatments for a total of 20 hrs. The Kitra-SRS cells (RRID:CVCL_YI69) were provided by Dr. H. Otani and Osaka University (Nakai et al., 2019) and were cultured in DMEM supplemented with 10% fetal bovine serum (Hyclone) and 100 U/100 μg/ml penicillin/streptomycin (Gibco). Biological replicates consisted of independent but parallel experiments, such as simultaneously stimulating three cell culture plates with IFNγ. Technical replicates consisted of repeat measurements of the same biological sample, such as loading the same biological sample in triplicate for analysis by RT-qPCR.
(§2) Myoblasts were transfected with either (final concentrations) 10 μM 2′,3′-cGAMP (Sigma Aldrich), 2 μg/mL poly(I:C) (Invitrogen), or 1 μg/mL 3′ppp-dsRNA RIG-I ligand (Dan Stetson Lab, UW) using Lipofectamine 2000 according to manufacturer's protocol, or were stimulated with 1000U IFNβ (PeproTech) or 200 ng/ml IFNγ (R+D Systems) by addition directly to cell culture medium. After 16 hours of immune stimulation, RNA was collected from cells using the NucleoSpin RNA Kit (Macherey-Nagel) according to manufacturer's instructions. RNA samples were quantified by nanodrop and 1 μg of RNA per sample was treated with DNase I Amplification Grade (Thermo Fisher), and then synthesized into cDNA using the Superscript IV First-Strand Synthesis System, including oligo dT primers (Invitrogen). qPCR was run in 384-well plates on an Applied Biosystems QuantStudio 6 Flex Real-Time PCR System (ABI) and analyzed in Microsoft Excel.

[3] = system: interferon-stimulated genes IFIH1, ISG20, CXCL9, and CD74; assay: IFNG induction of interferon-stimulated genes, RT-qPCR in MB135 cells with doxycycline-inducible transgenes; type: cell-based, human; settings: MB135 cells, doxycycline-induced transgene, continuous protocol, IFNG 16 h
Procedure: as §1, §2

[4] = LC-MS value per protein co-immunoprecipitated with DUX4-CTD construct mL1dL2 in MB135 myoblasts, + Dox + IFNG, kind of count not given

Row | Molecule | 4. longCTD + Dox + IFNG ([2]; experiment 4, Dox + IFNG) | 3. + IFNg + Dox longCTD ([2]; bait longCTD) | SUM of PSMS [2] | 4. mL1dL2 + Dox + IFNG [2, 4] | other results
1 | COc1ccc(C[C@H](NC(=O)[C@H](C)NC(=O)CN2CCOCC2)C(=O)N[C@@H](Cc2ccccc2)C(=O)C2(C)CO2)cc1 (stereo in doubt) [ONX-0914] | – | – | – | – | effect on IFNG-induced MHC-I and immunoproteasome protein in the absence of DUX4 [1]: did not reduce IFNG-induced MHC-I levels
2 | CC(C)C[C@H](NC(=O)[C@H](CCc1ccccc1)NC(=O)CN1CCOCC1)C(=O)N[C@@H](Cc1ccccc1)C(=O)N[C@@H](CC(C)C)C(=O)[C@@]1(C)CO1 [Carfilzomib] | – | – | – | – | effect on IFNG-induced MHC-I and immunoproteasome protein in the absence of DUX4 [1]: abrogated the accumulation of MHC-I following IFNG treatment
3 | P78371 | 4 | 1 | 7 | – | 4. mL1dL2 + Dox + IFNG ([2]; LC-MS counts of the listed protein co-immunoprecipitated with DUX4-CTD bait mL1dL2, experiment 4, Dox + IFNG): 2
4 | P78527 | 2 | 18 | 39 | – | 3. + Dox longCTD ([2]; bait longCTD): 3
5 | PABPC1 | – | – | – | 5 | –
6 | PLEC | – | – | – | 16 | 4. + IFNG mix ([2]; kind of count not given): 3
7 | PPP2R1A | – | – | – | 5 | –
8 | PRKDC | – | – | – | 5 | 4. + IFNG mix ([2]; kind of count not given): 11
9 | PSMA6 | – | – | – | 4 | –
10 | PSMD2 | – | – | – | 3 | 4. + IFNG mix ([2]; kind of count not given): 1
11 | PSME2 | – | – | – | 4 | –
12 | PTBP1 | – | – | – | 1 | –
13 | Q9ULV4 | 7 | 13 | 24 | – | 3. + Dox longCTD ([2]; bait longCTD): 4
14 | Q9Y490 | 3 | 1 | 5 | – | 3. + Dox longCTD ([2]; bait longCTD): 1
15 | Q00839 | – | 9 | 14 | – | 3. + Dox longCTD ([2]; bait longCTD): 4
16 | Q09666 | 1 | 4 | 14 | – | 3. + Dox longCTD ([2]; bait longCTD): 8

Row | Molecule | 4. longCTD + Dox + IFNG ([2]; experiment 4, Dox + IFNG) | 3. + IFNg + Dox longCTD ([2]; bait longCTD) | SUM of PSMS [2] | 4. mL1dL2 + Dox + IFNG [2, 4] | other results
17 | Q13200 | 4 | 3 | 11 | – | –
18 | Q13283 | 2 | 2 | 7 | – | 3. + Dox longCTD ([2]; bait longCTD): 1
19 | Q14315 | 12 | 7 | 24 | – | 3. + Dox longCTD ([2]; bait longCTD): 2
20 | Q15149 | 7 | 21 | 52 | – | 3. + Dox longCTD ([2]; bait longCTD): 5
21 | Q15208 | 6 | – | 11 | – | 3. + IFNG longCTD ([2]; bait longCTD, experiment 3, IFNG only, no doxycycline (bait at background level)): 1
22 | Q93008 | 3 | 5 | 15 | – | –
23 | STAT3 | – | – | – | 1 | –
24 | STK38 | – | – | – | – | 4. + IFNG mix ([2]; kind of count not given): 4
25 | TUBA1B | – | – | – | 24 | 4. + IFNG mix ([2]; kind of count not given): 9
26 | TUBB4B | – | – | – | 47 | 4. + IFNG mix ([2]; kind of count not given): 13
27 | USP9X | – | – | – | 7 | –
28 | VIM | – | – | – | 43 | 4. + IFNG mix ([2]; kind of count not given): 66
29 | XRCC5 | – | – | – | 1 | –
30 | YBX3 | – | – | – | 7 | –
31 | iDUX4dL2: DUX4 transgene deleting the second (L)LxxL(L) motif, SEQ ID NO:100 (PCGLLLDELLASPEFLQQAQPLLETEAPGELEASEEAASLEAPLSEEYRA) | – | – | – | – | transcriptional activation of DUX4 target gene ZSCAN4 (ZSCAN4): failed to activate the DUX4 target ZSCAN4; suppression of IFNG induction of ISGs (IFIH1, ISG20, CXCL9, CD74) [3]: lost the ability to suppress the panel of ISGs
32 | iDUX4mL1: DUX4 transgene mutating the first (L)LxxL(L) motif, SEQ ID NO: 99 (PCGLLAAEAAASPEFLQQAQPLLETEAPGELEASEEAASLEAPLSEEEYRALLEEL) | – | – | – | – | transcriptional activation of DUX4 target gene ZSCAN4 (ZSCAN4): failed to activate the DUX4 target ZSCAN4; suppression of IFNG induction of ISGs (IFIH1, ISG20, CXCL9, CD74) [3]: partial activity, suppressing 3 of the 4 ISGs
